This data set in a line: pH-dependent solubility profile of Compound II. The class given is physicochemical. The conditions noted are these: particularly between pH 1-4.

As to `COC(=O)N[C@H](C(=O)N1CCC[C@H]1c1ncc(-c2cc(F)c3c(c2)O[C@@H](c2cnc(C4CC4)s2)n2c-3cc3cc(-c4cnc([C@@H]5CCCN5C(=O)[C@@H](NC(=O)OC)C(C)C)[nH]4)ccc32)[nH]1)C(C)C` [Compound II, dimethyl ((2S,2′S)-((2S,2′S)-2,2′-(5,5′-((S)-6-(2-cyclopropylthiazol-5-yl)-1-fluoro-6H-benzo[5,6][1,3]oxazino[3,4-a]indole-3,10-diyl)bis(1H-imidazole-5,2-diyl))bis(pyrrolidine-2,1-diyl))bis(3-methyl-1-oxobutane-2,1-diyl))dicarbamate], the solubility profile entry was “sharp pH-dependent solubility profile”.

For the origin of these results see patent US20180228827A1, “FIXED-DOSE COMBINATIONS OF ANTIVIRAL COMPOUNDS” (MERCK SHARP & DOHME CORP., priority 2015, published 2018).
